Reference: the CheMixHub ionic liquid set

Assay: xn = mol fraction of the nth substance listed

COP(=O)([O-])OC.Cn1cc[n+](C)c1 + CO
Details	viscosity [mPa·s]
293.15 K, 101 kPa, x2 = 0.6018	20.02
293.15 K, 101 kPa, x2 = 0.8998	1.927
298.15 K, 101 kPa, x2 = 0	291
298.15 K, 101 kPa, x2 = 0.2977	86.2
298.15 K, 101 kPa, x2 = 0.3984	54.2
303.15 K, 101 kPa, x2 = 0.2009	95.3
303.15 K, 101 kPa, x2 = 0.5028	24.98
308.15 K, 101 kPa, x2 = 0.5028	21.1
308.15 K, 101.33 kPa, x2 = 0	139.5
318.15 K, 101 kPa, x2 = 0.1054	71.5
318.15 K, 101 kPa, x2 = 0.7027	5.83
323.15 K, 101 kPa, x2 = 0.2977	31.01
323.15 K, 101 kPa, x2 = 0.5028	13.63

CCCCCCCC[P+](CC)(CC)CC.O=[N+]([O-])c1cn[n-]c1 + COCCOCCOCCOCCOC
100 kPa
Details	viscosity [mPa·s]
278.15 K, x2 = 0.503	78
283.15 K, x2 = 0	868
283.15 K, x2 = 0.404	97
288.15 K, x2 = 0	578
288.15 K, x2 = 0.102	327
303.15 K, x2 = 0.051	170
308.15 K, x2 = 0.199	69
313.15 K, x2 = 0.199	55
318.15 K, x2 = 0	94

COP(=O)([O-])OC.Cn1cc[n+](C)c1 + CS(C)=O
viscosity [mPa·s], 101 kPa
Details	298.15 K	313.15 K	333.15 K
x1 = 0.1773	7.7	4.8	3.1
x1 = 0.4972	42.7	22.6	11.9
x1 = 0.7978	134.7	59.6	26.7
